Test results: patent publication US10105357B2, “Indication of antibiotic drugs for preparation of cancer inhibition pharmaceutical composition” (LAUNX BIOMEDICAL CO., LTD., priority 2014, dated 2018)
Like-named read-outs stand apart in the source and are kept apart here.

How the values were obtained:
[1] = system: 786-O (Renal adenocarcinoma); assay: Cell viability analysis, renal cancer 786-O; format: cell-based, human; details: Homo sapiens, 786-0, 72 h; 786-O; repeated experiment; read-out: The results of antibiotic drug inhibiting cancer cell lines (cell viability analysis), 786-O
[2] = system: HL-60 (Acute Promyelocytic Leukemia); assay: Cell viability analysis, leukemia HL-60; format: cell-based, human; details: Homo sapiens, HL-60, 72 h, drug 10 μM, 72 hours, WST-1, OD450 nm; read-out: cell viability (survival rate), HL-60
[3] = system: SAS (Tongue squamous cell carcinoma); assay: Cell viability analysis, tongue cancer SAS; format: cell-based, human; details: Homo sapiens, 72 h; SAS; repeated experiment; read-out: The results of antibiotic drug inhibiting cancer cell lines (cell viability analysis), SAS
[4] = system: TSGH-8301 (Urinary Bladder Carcinoma); assay: Cell viability analysis, bladder cancer TSGH-8301; format: cell-based, human; details: Homo sapiens, 72 h
[5] = system: LoVo (Colorectal Adenocarcinoma); assay: Cell viability analysis, colon cancer LoVo; format: cell-based, human; details: Homo sapiens, LoVo, 72 h
AsPC-1 = assay: Cell viability analysis, pancreatic cancer AsPC-1; format: cell-based, human; details: Homo sapiens, ASPC1, 72 h; AsPC-1; repeated experiment; read-out: The results of antibiotic drug inhibiting cancer cell lines (cell viability analysis), AsPC-1
BxPC-3 = assay: Cell viability analysis, pancreatic cancer BxPC-3; format: cell-based, human; details: Homo sapiens, 72 h; BxPC-3; repeated experiment; read-out: The results of antibiotic drug inhibiting cancer cell lines (cell viability analysis), BxPC-3
[6] = system: AGS (Gastric Adenocarcinoma); assay: Cell viability analysis, gastric cancer AGS; format: cell-based, human; details: Homo sapiens, 72 h
[7] = system: Hep3B (hepatocellular carcinoma); assay: Cell viability analysis, hepatic cancer Hep3B; format: cell-based, human; details: Homo sapiens, 72 h; Hep3B; repeated experiment; read-out: The results of antibiotic drug inhibiting cancer cell lines (cell viability analysis), Hep3B
[8] = system: A375 (Amelanotic Melanoma); assay: Cell viability analysis, skin cancer A375; format: cell-based, human; details: Homo sapiens, A-375, 72 h
TOV-21G = assay: Cell viability analysis, ovarian cancer TOV-21G; format: cell-based, human; details: Homo sapiens, TOV21G, 72 h; TOV-21G; repeated experiment; read-out: The results of antibiotic drug inhibiting cancer cell lines (cell viability analysis), TOV-21G
[9] = system: HCT116 (p53+) (Colorectal Carcinoma)
[10] = system: A549 (Lung Adenocarcinoma); assay: Cell viability analysis, lung cancer A549; format: cell-based, human; details: Homo sapiens, A549, 72 h
U-2OS = assay: Cell viability analysis, osteosarcoma U-2OS; format: cell-based, human; details: Homo sapiens, 72 h; U2OS; repeated experiment; read-out: The results of antibiotic drug inhibiting cancer cell lines (cell viability analysis), U2OS
[11] = system: HI650 (Lung Adenocarcinoma); assay: Cell viability analysis, lung cancer HI650; format: cell-based, human; details: Homo sapiens, NCI-H1650, 72 h
[12] = system: C-33A (Cervical carcinoma); assay: Cell viability analysis, cervical cancer C-33A; format: cell-based, human; details: Homo sapiens, 72 h; C-33A; repeated experiment; read-out: The results of antibiotic drug inhibiting cancer cell lines (cell viability analysis), C-33A
T24 = assay: Cell viability analysis, bladder cancer T24; format: cell-based, human; details: Homo sapiens, T-24, 72 h; T24; repeated experiment; read-out: The results of antibiotic drug inhibiting cancer cell lines (cell viability analysis), T24
[13] = system: PC3 (p53−) (Prostate Adenocarcinoma); assay: Cell viability analysis, prostate cancer PC3; format: cell-based, human; details: Homo sapiens, 72 h
NIH: OVCAR-3 = assay: Cell viability analysis, ovarian cancer NIH: OVCAR-3; format: cell-based, human; details: Homo sapiens, 72 h; NIH-OVCAR-3; repeated experiment; read-out: The results of antibiotic drug inhibiting cancer cell lines (cell viability analysis), NIH-OVCAR-3
[14] = system: MKN-45 (Gastric Adenocarcinoma); assay: Cell viability analysis, gastric cancer MKN-45; format: cell-based, human; details: Homo sapiens, MKN-45, 72 h
[15] = system: BCC (basal cell carcinoma); assay: Cell viability analysis, skin cancer BCC; format: cell-based, human; details: Homo sapiens, 72 h; BCC; repeated experiment; read-out: The results of antibiotic drug inhibiting cancer cell lines (cell viability analysis), BCC
[16] = system: MDA-MB-231 (Mammary Gland, Adenocarcinoma); assay: Cell viability analysis, breast cancer MDA-MB-231; format: cell-based, human; details: Homo sapiens, MDA-MB-231, 72 h; MDA-MB231; repeated experiment; read-out: The results of antibiotic drug inhibiting cancer cell lines (cell viability analysis), MDA-MB231
[17] = system: HeLa (Cervix Adenocarcinoma); assay: Cell viability analysis, cervical cancer HeLa; format: cell-based, human; details: Homo sapiens, HeLa, 72 h, HeLa
[18] = system: MCF7 (Mammary Gland, Adenocarcinoma); assay: Cell viability analysis, breast cancer MCF7; format: cell-based, human; details: Homo sapiens, MCF7, 72 h

NC(=O)N/N=C/c1ccc([N+](=O)[O-])o1 [Nitrofurazone (Nitrofural), Nitrofurazone]
viability at 10 µM [1]: 90% | viability at 10 µM [2]: 85.6% | viability at 10 µM [3]: 92.3% | viability at 10 µM ([4]; TSGH-8301, repeated experiment, read-out: The results of antibiotic drug inhibiting cancer cell lines (cell viability analysis), TSGH-8301): 83.9% | viability at 10 µM ([4]; drug 10 μM, 72 hours, WST-1, OD450 nm, read-out: cell viability (survival rate), TSGH): 32.5% | viability at 10 µM ([5]; read-out: The results of antibiotic drug inhibiting cancer cell lines (cell viability analysis), LoVo, repeated experiment): 84.8% | viability at 10 µM ([5]; read-out: cell viability (survival rate), LoVo, drug 10 μM, 72 hours, WST-1, OD450 nm): 64.9% | viability at 10 µM (AsPC-1): 76.7% | viability at 10 µM (BxPC-3): 71.6% | viability at 10 µM ([6]; AGS, repeated experiment, read-out: The results of antibiotic drug inhibiting cancer cell lines (cell viability analysis), AGS): 88.2% | viability at 10 µM ([6]; drug 10 μM, 72 hours, WST-1, OD450 nm, read-out: cell viability (survival rate), AGS): 28% | viability at 10 µM [7]: 95.3% | viability at 10 µM ([8]; A375, repeated experiment, read-out: The results of antibiotic drug inhibiting cancer cell lines (cell viability analysis), A375): 94.7% | viability at 10 µM ([8]; drug 10 μM, 72 hours, WST-1, OD450 nm, read-out: cell viability (survival rate), A375): 54.9% | viability at 10 µM (TOV-21G): 95.7% | viability [9]: 110% | viability at 10 µM ([10]; A549, repeated experiment, read-out: The results of antibiotic drug inhibiting cancer cell lines (cell viability analysis), A549): 114% | viability at 10 µM ([10]; drug 10 μM, 72 hours, WST-1, OD450 nm, read-out: cell viability (survival rate), A549): 44.3% | viability at 10 µM (U-2OS): 92.4% | viability at 10 µM ([11]; H1650, repeated experiment, read-out: The results of antibiotic drug inhibiting cancer cell lines (cell viability analysis), H1650): 67.3% | viability at 10 µM ([11]; drug 10 μM, 72 hours, WST-1, OD450 nm, read-out: cell viability (survival rate), H1650): 61.1% | viability at 10 µM [12]: 83.2% | viability at 10 µM (T24): 87.4% | viability at 10 µM ([13]; PC-3, repeated experiment, read-out: The results of antibiotic drug inhibiting cancer cell lines (cell viability analysis), PC-3): 98.6% | viability at 10 µM ([13]; drug 10 μM, 72 hours, WST-1, OD450 nm, read-out: cell viability (survival rate), PC3): 53.8% | viability at 10 µM (NIH: OVCAR-3): 99.5% | viability at 10 µM ([14]; MKN-45, repeated experiment, read-out: The results of antibiotic drug inhibiting cancer cell lines (cell viability analysis), MKN-45): 86.8% | viability at 10 µM ([14]; drug 10 μM, 72 hours, WST-1, OD450 nm, read-out: cell viability (survival rate), MKN-45): 42% | viability at 10 µM [15]: 93% | viability at 10 µM [16]: 84% | viability at 10 µM ([17]; repeated experiment, read-out: The results of antibiotic drug inhibiting cancer cell lines (cell viability analysis), HeLa): 51.2% | viability at 10 µM ([17]; drug 10 μM, 72 hours, WST-1, OD450 nm, read-out: cell viability (survival rate), HeLa): 55.4% | viability at 10 µM ([18]; MCF-7, repeated experiment, read-out: The results of antibiotic drug inhibiting cancer cell lines (cell viability analysis), MCF-7): 107% | viability at 10 µM ([18]; drug 10 μM, 72 hours, WST-1, OD450 nm, read-out: cell viability (survival rate), MCF7): 35.3%
